Test results published in article PMC8881610 (Nature Communications, 2022).

Key:
GLP-1R [1] = target: T1, GLP-1R (Homo sapiens, UniProt P43220, R299A); assay: Whole-cell binding assay, competition with 125I-GLP-1(7-36)NH2; details: GLP-1R R299A; CHO-K1
T1 construct: Flag; expressed in transfected cells
Procedure: (§1) Human embryonic kidney 293 cells containing SV40 large T-antigen (HEK293T) were cultured in DMEM (Gibco) supplemented with 10% (v/v) fetal bovine serum (FBS, Gibco), 1 mM sodium pyruvate (Gibco) and 100 units/mL penicillin and 100 μg/mL streptomycin at 37 °C in 5% CO2. Chinese hamster ovary (CHO-K1) cells were cultured in F-12 (Gibco) containing 10% FBS, 100 units/mL penicillin and 100 μg/mL streptomycin at 37 °C in 5% CO2. For cAMP and receptor expression assays, HEK293T cells were seeded into 6-well cell culture plates at a density of 7 × 10^5 cells per well. After overnight incubation, cells were transfected with GIPR, GLP-1R or GCGR construct using Lipofectamine 2000 or Lipofectamine 3000 transfection reagent (Invitrogen). For whole-cell binding assay, CHO-K1 cells were seeded into 96-well fibronectin-treated cell culture plates at a density of 3 × 10^4 cells per well. […] Following 24 h culturing, the transfected cells were ready for use.
(§2) For GLP-1R and GCGR, CHO-K1 cells (30,000 cells/well) were seeded into Isoplate-96 plates and incubated for 24 h at 37 °C in 5% CO2. […] After addition of scintillation cocktail (PerkinElmer), radioactivity (CPM) was counted on a MicroBeta^2 microplate counter (PerkinElmer). Data were normalized to the WT response and analyzed using three-parameter logistic equation.

GLP-1R [2] = target: T2, GLP-1R (Homo sapiens, UniProt P43220, Y152A); assay: as above; details: GLP-1R Y152A; CHO-K1
T2 construct: Flag; expressed in transfected cells
T2 sequence (P43220 24-463 Y152A): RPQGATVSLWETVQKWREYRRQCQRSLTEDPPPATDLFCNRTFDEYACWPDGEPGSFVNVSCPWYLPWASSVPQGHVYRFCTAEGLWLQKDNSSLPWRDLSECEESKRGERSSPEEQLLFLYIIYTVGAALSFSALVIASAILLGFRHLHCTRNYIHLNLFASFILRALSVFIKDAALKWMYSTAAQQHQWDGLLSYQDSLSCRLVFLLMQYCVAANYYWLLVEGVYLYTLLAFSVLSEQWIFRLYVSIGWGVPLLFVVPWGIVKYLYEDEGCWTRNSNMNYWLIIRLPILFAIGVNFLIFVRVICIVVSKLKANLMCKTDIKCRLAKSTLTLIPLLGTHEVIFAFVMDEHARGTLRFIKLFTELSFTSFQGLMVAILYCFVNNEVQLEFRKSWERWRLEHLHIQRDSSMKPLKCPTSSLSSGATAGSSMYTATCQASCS
Procedure: as §1, §2

GIPR = target: T3, GIPR (Homo sapiens, UniProt P48546, Y145A); assay: Whole-cell binding assay, competition with 125I-GIP1-42; details: GIPR Y145A; CHO-K1
T3 construct: acylated tirzepatide to the full-length or modified; Flag; expressed in transfected cells
T3 sequence (P48546 22-466 Y145A): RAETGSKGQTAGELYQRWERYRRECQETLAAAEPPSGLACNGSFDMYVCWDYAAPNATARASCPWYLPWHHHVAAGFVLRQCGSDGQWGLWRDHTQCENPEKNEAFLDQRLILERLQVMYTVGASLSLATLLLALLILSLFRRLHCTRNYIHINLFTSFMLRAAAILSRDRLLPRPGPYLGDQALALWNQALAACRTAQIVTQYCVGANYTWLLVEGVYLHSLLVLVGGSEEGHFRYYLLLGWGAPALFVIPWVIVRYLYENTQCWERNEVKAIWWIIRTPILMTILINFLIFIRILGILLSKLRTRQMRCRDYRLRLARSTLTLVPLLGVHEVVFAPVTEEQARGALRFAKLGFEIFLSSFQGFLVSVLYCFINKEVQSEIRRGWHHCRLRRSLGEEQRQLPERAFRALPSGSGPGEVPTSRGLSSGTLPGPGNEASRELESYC
Procedure: as §1
For GIPR, CHO-K1 cells were cultured in F-12 medium with 10% FBS and seeded at a density of 30,000 cells/well in Isoplate-96 plates (PerkinElmer). […] Fifty µL of scintillation cocktail (OptiPhase SuperMix, PerkinElmer) were added and the plates were subsequently counted for radioactivity (counts per minute, CPM) in a MicroBeta^2 microplate counter (PerkinElmer).

[3] = clinical trial outcome; Drugs@FDA, ChemBL, ClinicalTrials.gov; cited from earlier work
GLP-1R [4] = target: GLP-1R (Homo sapiens, UniProt P43220, Q210A); assay: Whole-cell binding assay, competition with 125I-GLP-1(7-36)NH2; design: Flag; expressed in transfected cells; details: GLP-1R Q210A, CHO-K1
Chain of GLP-1R (Homo sapiens, UniProt P43220, Q210A) (P43220 24-463 Q210A): as the sequence (P43220 24-463 Y152A) above, with A129Y, Q187A counted along it
Procedure, shortened: (§3)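 CHO-K1 cells transiently transfected with WT or mutant receptor constructs, washed in F-12 with 0.1% BSA or casein/33 mM HEPES and incubated 2 h at 37 °C. Bound radioactivity counted after Triton lysis; data normalized to WT and fitted to a three-parameter logistic equation.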

GLP-1R [5] = target: GLP-1R (Homo sapiens, UniProt P43220, K202A); assay: as above; design: Flag; expressed in transfected cells; details: GLP-1R K202A, CHO-K1
Chain of GLP-1R (Homo sapiens, UniProt P43220, K202A) (P43220 24-463 K202A): as the sequence (P43220 24-463 Y152A) above, with A129Y, K179A counted along it
Procedure, shortened: as §3

GLP-1R [6] = target: GLP-1R (Homo sapiens, UniProt P43220, W39A); assay: as above; design: Flag; expressed in transfected cells; details: GLP-1R W39A; CHO-K1
Chain of GLP-1R (Homo sapiens, UniProt P43220, W39A) (P43220 24-463 W39A): as the sequence (P43220 24-463 Y152A) above, with W16A, A129Y counted along it
Procedure, shortened: as §3

GLP-1R [7] = target: GLP-1R (Homo sapiens, UniProt P43220, W91A); assay: as above; design: Flag; expressed in transfected cells; details: GLP-1R W91A, CHO-K1
Chain of GLP-1R (Homo sapiens, UniProt P43220, W91A) (P43220 24-463 W91A): as the sequence (P43220 24-463 Y152A) above, with W68A, A129Y counted along it
Procedure, shortened: as §3

GLP-1R [8] = target: GLP-1R (Homo sapiens, UniProt P43220, R134A); assay: as above; design: Flag; expressed in transfected cells; details: GLP-1R R134A, CHO-K1
Chain of GLP-1R (Homo sapiens, UniProt P43220, R134A) (P43220 24-463 R134A): as the sequence (P43220 24-463 Y152A) above, with R111A, A129Y counted along it
Procedure, shortened: as §3

GLP-1R [9] = target: GLP-1R (Homo sapiens, UniProt P43220, Y205A); assay: as above; design: Flag; expressed in transfected cells; details: GLP-1R Y205A, CHO-K1
Chain of GLP-1R (Homo sapiens, UniProt P43220, Y205A) (P43220 24-463 Y205A): as the sequence (P43220 24-463 Y152A) above, with A129Y, Y182A counted along it
Procedure, shortened: as §3

GLP-1R [10] = target: GLP-1R (Homo sapiens, UniProt P43220, D198A); assay: as above; design: Flag; expressed in transfected cells; details: GLP-1R D198A, CHO-K1
Chain of GLP-1R (Homo sapiens, UniProt P43220, D198A) (P43220 24-463 D198A): as the sequence (P43220 24-463 Y152A) above, with A129Y, D175A counted along it
Procedure, shortened: as §3

GLP-1R [11] = target: GLP-1R (Homo sapiens, UniProt P43220, D198A/K202A/Y145A); assay: as above; design: Flag; expressed in transfected cells; details: GLP-1R Y145A/D198A/K202A, CHO-K1
Chain of GLP-1R (Homo sapiens, UniProt P43220, D198A/K202A/Y145A) (P43220 24-463 Y145A/D198A/K202A): as the sequence (P43220 24-463 Y152A) above, with Y122A, A129Y, D175A, K179A counted along it
Procedure, shortened: as §3

[12] = read-out: binding pIC50 (converted)

T1 sequence (P43220 24-463 R299A): as the sequence (P43220 24-463 Y152A) above, with A129Y, R276A counted along it

CC[C@H](C)[C@H](NC(=O)[C@H](CC(C)C)NC(=O)[C@H](Cc1c[nH]c2ccccc12)NC(=O)[C@H](CCC(N)=O)NC(=O)[C@@H](NC(=O)[C@H](Cc1ccccc1)NC(=O)[C@H](C)NC(=O)[C@H](CCCCNC(=O)COCCOCCNC(=O)COCCOCCNC(=O)CC[C@H](NC(=O)CCCCCCCCCCCCCCCCCCC(=O)O)C(=O)O)NC(=O)[C@H](CCC(N)=O)NC(=O)[C@H](C)NC(=O)[C@@H](NC(=O)[C@H](CCCCN)NC(=O)[C@H](CC(=O)O)NC(=O)[C@H](CC(C)C)NC(=O)C(C)(C)NC(=O)[C@@H](NC(=O)[C@H](CO)NC(=O)[C@H](Cc1ccc(O)cc1)NC(=O)[C@H](CC(=O)O)NC(=O)[C@H](CO)NC(=O)[C@@H](NC(=O)[C@H](Cc1ccccc1)NC(=O)[C@@H](NC(=O)CNC(=O)[C@H](CCC(=O)O)NC(=O)C(C)(C)NC(=O)[C@@H](N)Cc1ccc(O)cc1)[C@@H](C)O)[C@@H](C)O)[C@@H](C)CC)[C@@H](C)CC)C(C)C)C(=O)N[C@@H](C)C(=O)NCC(=O)NCC(=O)N1CCC[C@H]1C(=O)N[C@@H](CO)C(=O)N[C@@H](CO)C(=O)NCC(=O)N[C@@H](C)C(=O)N1CCC[C@H]1C(=O)N1CCC[C@H]1C(=O)N1CCC[C@H]1C(=O)N[C@@H](CO)C(N)=O [Tirzepatide]
binding Span (GLP-1R [1]): 8.59 ± 1.61 % WT | binding Span (GLP-1R [2]): 11.22 ± 2.82 % WT | binding pIC50 (GIPR): N.B. | Body weight [3]: -5.30 ~ -5.70 kg or % | Fasting plasma glucose [3]: -60.70 ~ -74.20 mg/dL

CCCCCCCCCCCCCCCC(=O)N[C@@H](CCC(=O)NCCCC[C@H](NC(=O)[C@H](CC(=O)O)NC(=O)[C@H](CO)NC(=O)[C@@H](NC(=O)[C@H](Cc1ccccc1)NC(=O)[C@@H](NC(=O)CNC(=O)[C@H](CCC(N)=O)NC(=O)C(C)(C)NC(=O)[C@@H](N)Cc1c[nH]cn1)[C@@H](C)O)[C@@H](C)O)C(=O)N[C@@H](CO)C(=O)N[C@@H](CCCCN)C(=O)N[C@@H](Cc1ccc(O)cc1)C(=O)N[C@@H](CC(C)C)C(=O)N[C@@H](CC(=O)O)C(=O)N[C@@H](CCC(=O)O)C(=O)N[C@@H](CCCNC(=N)N)C(=O)N[C@@H](C)C(=O)N[C@@H](C)C(=O)N[C@@H](CCC(N)=O)C(=O)N[C@@H](CC(=O)O)C(=O)N[C@@H](Cc1ccccc1)C(=O)N[C@H](C(=O)N[C@@H](CCC(N)=O)C(=O)N[C@@H](Cc1c[nH]c2ccccc12)C(=O)N[C@@H](CC(C)C)C(=O)N[C@@H](CC(C)C)C(=O)N[C@@H](CC(=O)O)C(=O)NCC(=O)NCC(=O)N1CCC[C@H]1C(=O)N[C@@H](CO)C(=O)N[C@@H](CO)C(=O)NCC(=O)N[C@@H](C)C(=O)N1CCC[C@H]1C(=O)N1CCC[C@H]1C(=O)N1CCC[C@H]1C(=O)N[C@@H](CO)C(N)=O)C(C)C)C(=O)O [Peptide 20]
binding Span (GLP-1R [4]): 100.10 ± 5.13 % WT | IC50 (GLP-1R [4]; [12]): 4.07 nM | binding Span (GLP-1R [5]): 15.32 ± 1.82 % WT | IC50 (GLP-1R [5]; [12]): 3.47 nM | binding Span (GLP-1R [6]): N.B. | binding pIC50 (GLP-1R [6]): N.B. | binding Span (GLP-1R [7]): 6.51 ± 2.59 % WT | IC50 (GLP-1R [7]; [12]): 2.04 nM | binding Span (GLP-1R [8]): 73.44 ± 3.42 % WT | IC50 (GLP-1R [8]; [12]): 3.02 nM | binding Span (GLP-1R [9]): 6.01 ± 3.17 % WT | IC50 (GLP-1R [9]; [12]): 50.1 nM | binding Span (GLP-1R [10]): 1.88 ± 1.66 % WT | IC50 (GLP-1R [10]; [12]): 52.5 nM | binding Span (GLP-1R [11]): 10.85 ± 36.78 % WT | IC50 (GLP-1R [11]; [12]): 1780 nM
